Reference: patent US12583856B2, “Inhibitors of protein kinase A” (Blueprint Medicines Corporation, priority 2021, dated 2026)

Legend:
PRKACA = target: T1, PRKACA (Homo sapiens, UniProt P17612); assay: PRKACA assay at Km (EZ Reader 2 electrophoretic mobility shift); assay type: biochemical; settings: 5 μM ATP (Km), 1 μM Kemptide, 90 minutes at 25 C; read-out: Enz PRKACA IC50
T1 construct: purchased Millipore 539482
Experimental: (§1) A Perkin Elmer electrophoretic mobility shift platform (the EZ Reader 2) was used to assess the activity of test compounds against a kinase of interest. Fluorescently labeled substrate peptide was incubated in the presence of kinase, ATP, and the test compound, so that a portion of the peptide was phosphorylated by the enzyme. At the end of the reaction, the mix of phosphorylated (product) and non-phosphorylated (substrate) peptide containing solutions was passed through the microfluidic system of the Perkin Elmer EZ Reader 2 under an applied potential difference. The presence of the phosphate group on the product peptide provided a difference in mass and charge between those of the substrate peptide, resulting in a separation of the substrate and product pools in the sample. As the stopped solutions passed under the instrument's LED light the phosphorylated and un-phosphorylated fluorophore bound peptides were detected and resolved as separate peaks. The ratio between these peaks therefore reflected the test compound's impact on the kinase at that concentration in that well under those conditions.
PRKACA assay at Km: In each well of a 384-well plate, 0.007 ng/ul (0.18 nM) of PRKACA enzyme (Millipore: 539482) was incubated in a total of 12.5 μl of buffer (100 mM HEPES pH 7.5, 0.015% Brij 35, 10 mM MgCl2, 1 mM DTT) with 1 μM Kemptide peptide substrate (5-FAM-LRRASLG) (Anaspec 29933) and 5 μM ATP at 25 C for 90 minutes in the presence or absence of a dosed concentration series of test compounds (1% DMSO final concentration). The reaction was stopped by the addition of 80 μl of Stop buffer (100 mM HEPES pH 7.5, 0.015% Brij 35, 35 mM EDTA and 0.2% of Coating Reagent 3 (Perkin Elmer)). The plate was then read on the EZ Reader 2 (protocol settings: −2.0 psi, upstream voltage −700, downstream voltage −2700, post sample sip 60 seconds). Data was normalized to 0% and 100% inhibition controls and the IC50 calculated using a 4-parameter fit using GraphPad Prism.

[1] = system: PKA (phosphorylation of VASP on Serine 157); assay: Cellular potency assay: P-VASP(157) HTRF in Forskolin-stimulated Huh7 cells; assay type: cell-based; settings: Homo sapiens, Huh-7, 4 hours compound, 5 μM Forskolin 30 minutes, read-out: Phos VASP(S157) IC50
Description: PKA directly phosphorylate VASP on Serine 157. Phosphorylation of VASP on Serine 157. P-VASP(157) was therefore used as a readout of PKA cellular activity. P-VASP(157) was detected with a HTRF assay, which is based on a TR-FRET sandwich immunoassay-based format comprising two specific anti-VASP antibodies following the manufactors protocol (Cisbio, Catalog No. 63ADK066PEH). PKA was activated in the assay by the addition of Forskolin (Sigma-Aldrich, Catalog No. F3917).
Dose response in Forskolin-stimulated human Huh7 cells was measured as follows. Briefly, Huh7 cells were plated at a density of 2×10^4 cells per well in a 384-well opti-well cell culture plate in 15 μl of serum- and phenol-free Dulbecco's Modified Eagle Medium (DMEM, Gibco Catalog No. 21063-029), and incubated for over night at 37° C., 5% CO2. The next day, 3 μl of a dosed concentration series of test compound (0.24%) DMSO final concentration) was added to the wells, and the cells were incubated for an additional 4 hours at 37° C., 5% CO2. 2 μl of Forskolin was added at a final concentration of 5 μM and the plates were incubated for 30 minutes at 37° C., 5% CO2. 5 μl of lysis buffer containing 1% HALT protease cocktail inhibitors (ThermoFisher, Catalog No. 78430), was added to the cells and the mixture was incubated under gentle shaking for 30 min at room temperature. 10 μl of this lysate was transferred to a 384-well proxi plate and 2.5 μL of the premixed antibody solution was added. An antibody solution was prepared by combining phopho-VASP cryptate antibody and phospho-VASP d2 antibody, at twenty-fold dilution into a buffer solution following the manufactors' protocol. The lysate and antibody mixture was incubated for either 3 h at room temperature or overnight at 4° C. The fluorescence emission at two different wavelengths (665 nm and 620 nm) was read on an EnVision instrument.

PRKACA-DNAJB1 = target: T2, PRKACA-DNAJB1 (Homo sapiens, UniProt P17612); assay: PRKACA-DNAJB1 enzyme assay (EZ Reader 2 electrophoretic mobility shift); assay type: biochemical; settings: read-out: Enz PRKACA-DNAJB1 IC50
T2 construct: DNAJB1 (fusion partner, P25685); the other entry of the earlier key: DNAJB1 (P25685, DnaJ homolog subfamily B member 1)
Experimental: as §1

| SMILES | IC50 (PRKACA) | IC50 [1] | IC50 (PRKACA-DNAJB1) |
| --- | --- | --- | --- |
| O=C(N[C@H]1CCOc2cccc(F)c21)c1ccc(-c2ccnc3[nH]ccc23)nc1 [Compound 117, (S)—N-(5-Fluorochroman-4-yl)-6-(1H-pyrrolo[2,3-b]pyridin-4-yl)nicotinamide] | ≤ 1 nM | < 50 nM | ≤ 1 nM |
| CO[C@@H]1CCN([C@@H]2Cc3cccc(F)c3[C@H]2NC(=O)c2ccc(-c3ccnc4[nH]ccc34)nc2)C1 [Compound 173] | ≤ 1 nM | 0.01 to 100 nM | ≤ 1 nM |
| C[C@H]1Oc2cccc(F)c2[C@@H](NC(=O)c2ccc(-c3ccnc4[nH]ccc34)nc2)[C@H]1O (single isomer, unassigned) [Compound 136] | ≤ 1 nM | 0.01 to 100 nM | ≤ 1 nM |
| O=C(N[C@H]1CCOc2ccc(F)c(F)c21)c1ccc(-c2ccnc3[nH]ccc23)cc1 [Compound 129, N-[(4S)-5,6-Difluoro-3,4-dihydro-2H-1-benzopyran-4-yl]-4-{1H-pyrrolo[2,3-b]pyridin-4-yl}benzamide] | ≤ 1 nM | < 50 nM | ≤ 1 nM |
| O=C(N[C@@H]1c2c(F)cccc2OC[C@@H]1O)c1ccc(-c2ccnc3[nH]ccc23)nc1 [Compound 126, N-[(3R,4R)-5-Fluoro-3-hydroxy-3,4-dihydro-2H-1-benzopyran-4-yl]-6-{1H-pyrrolo[2,3-b]pyridin-4-yl}pyridine-3-carboxamide] | ≤ 1 nM | < 50 nM | 1.01 to 5 nM |
| O=C(N[C@@H]1c2c(F)cccc2OC[C@@H]1O)c1ccc(-c2ccnc3[nH]cc(F)c23)nc1 [Compound 141] | ≤ 1 nM | 0.01 to 100 nM | ≤ 1 nM |
| O=C(N[C@@H]1c2ccccc2C[C@H]1O)c1ccc(-c2ccnc3[nH]cc(F)c23)cc1 [Compound 111] | ≤ 1 nM | < 50 nM | ≤ 1 nM |
| Cc1c[nH]c2nccc(-c3ccc(C(=O)N[C@@H]4c5ccccc5C[C@H]4N4CCCC4)cn3)c12 [Compound 152] | 1.01 to 5 nM | 0.01 to 100 nM | 1.01 to 5 nM |
| Cc1c[nH]c2nccc(-c3ccc(C(=O)N[C@@H]4c5c(ccc(F)c5F)O[C@@H](C)[C@H]4O)cn3)c12 [Compound 160] | ≤ 1 nM | < 50 nM | ≤ 1 nM |
| Cc1c[nH]c2nccc(-c3ccc(C(=O)N[C@@H]4c5c(F)cc(C(F)F)cc5OCC4O)cn3)c12 (single isomer, unassigned) [Compound 172] | ≤ 1 nM | < 50 nM | ≤ 1 nM |
| O=C(N[C@@H]1c2ccccc2C[C@@H]1CO)c1ccc(-c2ccnc3[nH]ccc23)cc1 (single isomer, unassigned) [Compound 108] | ≤ 1 nM | < 50 nM | ≤ 1 nM |
| CO[C@@H]1CCN([C@@H]2Cc3cccc(Cl)c3[C@H]2NC(=O)c2ccc(-c3ccnc4[nH]cc(F)c34)nc2)C1 [Compound 189] | ≤ 1 nM | 0.01 to 100 nM | ≤ 1 nM |
| Cc1c[nH]c2nccc(-c3ccc(C(=O)N[C@@H]4c5c(ccc(F)c5F)C[C@H]4N4CCCC4)cn3)c12 [Compound 175] | ≤ 1 nM | < 50 nM | ≤ 1 nM |
| O=C(N[C@@H]1c2c(Cl)cccc2C[C@H]1N1C[C@H](O)[C@@H](F)C1)c1ccc(-c2ccnc3[nH]ccc23)nc1 [Compound 185] | ≤ 1 nM | < 50 nM | ≤ 1 nM |
| O=C(N[C@H]1CCOc2ccccc21)c1ccc(-c2ccnc3[nH]ccc23)cc1 [Compound 103] | ≤ 1 nM | < 50 nM | ≤ 1 nM |
| O=C(N[C@H]1C[C@@H](O)c2cccc(F)c21)c1ccc(-c2ccnc3[nH]ccc23)nc1 (single isomer, unassigned) [Compound 119] | ≤ 1 nM | > 100 nM | 1.01 to 5 nM |
| O=C(N[C@H]1CCc2cc(C(F)F)ccc21)c1ccc(-c2ccnc3[nH]ccc23)cc1 (single isomer, unassigned) [Compound 125] | ≤ 1 nM | < 50 nM | ≤ 1 nM |
| Cc1c[nH]c2nccc(-c3ccc(C(=O)N[C@@H]4c5c(ccc(F)c5F)O[C@H](C)[C@@H]4O)cn3)c12 [Compound 161] | ≤ 1 nM | 0.01 to 100 nM | ≤ 1 nM |
| C[C@H]1Oc2ccc(F)c(F)c2[C@@H](NC(=O)c2ccc(-c3ccnc4[nH]ccc34)nc2)[C@H]1O [Compound 151] | ≤ 1 nM | < 50 nM | ≤ 1 nM |
| O=C(N[C@@H]1c2ccccc2C[C@H]1N1CCCC1)c1ccc(-c2ccnc3[nH]ccc23)cc1 [Compound 142] | ≤ 1 nM | < 50 nM | ≤ 1 nM |
| O=C(N[C@@H]1c2c(Cl)cccc2C[C@H]1N1CC[C@@H](O)C1)c1ccc(-c2ccnc3[nH]ccc23)cn1 [Compound 176] | ≤ 1 nM | < 50 nM | ≤ 1 nM |
| C[C@@H]1Oc2ccc(F)c(F)c2[C@@H](NC(=O)c2ccc(-c3ccnc4[nH]ccc34)nc2)[C@@H]1O [Compound 150] | ≤ 1 nM | < 50 nM | ≤ 1 nM |
| O=C(N[C@@H]1c2ccccc2C[C@H]1N1CCCC1)c1ccc(-c2ccnc3[nH]cc(F)c23)nc1 [Compound 159] | ≤ 1 nM | 0.01 to 100 nM | 1.01 to 5 nM |
| Cc1c[nH]c2nccc(-c3ccc(C(=O)N[C@@H]4c5c(F)cccc5OC[C@@H]4O)cn3)c12 [Compound 135] | ≤ 1 nM | 0.01 to 100 nM | ≤ 1 nM |
| Cc1c[nH]c2nccc(-c3ccc(C(=O)N[C@@H]4c5c(F)cccc5C[C@H]4N4CCCC4)cn3)c12 [Compound 165] | ≤ 1 nM | < 50 nM | ≤ 1 nM |
| O=C(N[C@@H]1c2ccccc2OC[C@@H]1O)c1ccc(-c2ccnc3[nH]ccc23)cc1 [Compound 110, N-[(3R,4R)-3-Hydroxy-3,4-dihydro-2H-1-benzopyran-4-yl]-4-{1H-pyrrolo[2,3-b]pyridin-4-yl}benzamide] | ≤ 1 nM | < 50 nM | ≤ 1 nM |
| O=C(N[C@@H]1c2c(F)cccc2C[C@H]1N1CC[C@H](F)C1)c1ccc(-c2ccnc3[nH]ccc23)nc1 [Compound 170] | ≤ 1 nM | < 50 nM | ≤ 1 nM |
| O=C(N[C@@H]1c2ccccc2C[C@@H]1O)c1ccc(-c2ccnc3[nH]ccc23)cc1 [Compound 101, N-[(1R,2S)-2-Hydroxy-2,3-dihydro-1H-inden-1-yl]-4-{1H-pyrrolo[2,3-b]pyridin-4-yl}benzamide] | ≤ 1 nM | < 50 nM | ≤ 1 nM |
| O=C(N[C@@H]1c2ccccc2C[C@H]1F)c1ccc(-c2ccnc3[nH]ccc23)cc1 [Compound 104, N-((1R,2R)-2-Fluoro-2,3-dihydro-1H-inden-1-yl)-4-(1H-pyrrolo[2,3-b]pyridin-4-yl)benzamide] | ≤ 1 nM | 0.01 to 100 nM | ≤ 1 nM |
| O=C(N[C@@H]1c2ccccc2C[C@H]1OCCO)c1ccc(-c2ccnc3[nH]ccc23)cc1 [Compound 134, N-[(1R,2R)-2-(2-Hydroxyethoxy)-2,3-dihydro-1H-inden-1-yl]-4-{1H-pyrrolo[2,3-b]pyridin-4-yl}benzamide] | ≤ 1 nM | < 50 nM | ≤ 1 nM |
